Test results reported in patent US6355799B1, “Substituted benzene compounds, process for their preparation, and herbicidal and defoliant compositions containing them” (ISK Americas Incorporated, priority 1997, dated 2002).

How the values were obtained:
Assay type in all cases: in vivo
[1] = system: large crabgrass (Digitaria sanguinalis, DIGSA); test: Pre-emerge test, greenhouse herbicide activity screening; details: for phytotoxicity rating DIGSA: pre-emerge, 14 days after application, scale 0-100; for Pre-emerge Herbicidal Activity, phytotoxicity rating (0-100), DIGSA: rated 14 days after application, 0 = no damage, 100 = complete death
Method in brief: (§1)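 Sandy loam pots; pre-emerge: sown 1 d pre-spray, surface-watered after, then bottom-watered. Post-emerge: sown 8–21 d before, 2–3 leaf stage, + 0.25% v/v NIS, bottom-watered. Acetone, 187 l/ha track spray, 15–1000 g ai/ha. 0–100 injury score, day 14.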

[2] = system: ivyleaf morningglory (Ipomoea hederacea, IPOHE); test: as above; details: for phytotoxicity rating IPOHE: pre-emerge, 14 days after application, scale 0-100; for Pre-emerge Herbicidal Activity, phytotoxicity rating (0-100), IPOHE: rated 14 days after application, 0 = no damage, 100 = complete death
Method in brief: as §1

[3] = system: johnsongrass (Sorghum halepense, SORHA); test: as above; details: for phytotoxicity rating SORHA: pre-emerge, 14 days after application, scale 0-100; for Pre-emerge Herbicidal Activity, phytotoxicity rating (0-100), SORHA: rated 14 days after application, 0 = no damage, 100 = complete death
Method in brief: as §1

[4] = system: lambsquarters (Chenopodium album, CHEAL); test: as above; details: for phytotoxicity rating CHEAL: pre-emerge, 14 days after application, scale 0-100; for Pre-emerge Herbicidal Activity, phytotoxicity rating (0-100), CHEAL: rated 14 days after application, 0 = no damage, 100 = complete death
Method in brief: as §1

[5] = system: velvetleaf (Abutilon theophrasti, ABUTH); test: as above; details: for phytotoxicity rating ABUTH: pre-emerge, 14 days after application, scale 0-100; for Pre-emerge Herbicidal Activity, phytotoxicity rating (0-100), ABUTH: rated 14 days after application, 0 = no damage, 100 = complete death
Method in brief: as §1

[6] = system: green foxtail (Setaria viridis, SETVI); test: as above; details: for phytotoxicity rating SETVI: pre-emerge, 14 days after application, scale 0-100; for Pre-emerge Herbicidal Activity, phytotoxicity rating (0-100), SETVI: rated 14 days after application, 0 = no damage, 100 = complete death
Method in brief: as §1

[7] = system: barnyardgrass (Echinochloa crus-galli, ECHCG); test: as above; details: for phytotoxicity rating ECHCG: pre-emerge, 14 days after application, scale 0-100; for Pre-emerge Herbicidal Activity, phytotoxicity rating (0-100), ECHCG: rated 14 days after application, 0 = no damage, 100 = complete death
Method in brief: as §1

[8] = system: sicklepod (Cassia obtusifolia, CASOB); test: as above; details: for phytotoxicity rating CASOB: pre-emerge, 14 days after application, scale 0-100; for Pre-emerge Herbicidal Activity, phytotoxicity rating (0-100), CASOB: rated 14 days after application, 0 = no damage, 100 = complete death
Method in brief: as §1

[9] = system: redroot pigweed (Amaranthus retroflexus, AMARE); test: as above; details: for phytotoxicity rating AMARE: pre-emerge, 14 days after application, scale 0-100; for Pre-emerge Herbicidal Activity, phytotoxicity rating (0-100), AMARE: rated 14 days after application, 0 = no damage, 100 = complete death
Method in brief: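 Compounds in acetone were track-sprayed at 187 l/ha, 15–1000 g ai/ha, onto sandy loam pots. Pre-emerge seeds were sown one day before spraying, with surface watering afterwards. Post-emerge plants were at the 2–3 leaf stage and sprayed with 0.25% v/v non-ionic surfactant. Injury was rated 0–100 at 14 days.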

[10] = system: upland rice (Oryza sp., var. Tebonnet, RICE); test: Post-emerge test, crop safety; details: post-emerge, 14 days after application, rating scale 0-100
Method in brief: as §1

[11] = system: field corn (Zea mays L., var. Dekalb 535, CORN); test: Post-emerge test, crop safety; details: post-emerge, 14 days after application, rating scale 0-100
Method in brief: as §1

[12] = system: large crabgrass (Digitaria sanguinalis, DIGSA); test: Post-emerge test, greenhouse herbicide activity screening; details: post-emerge, 14 days after application, rating scale 0-100
Method in brief: (§2)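 Herbicidal damage is scored 0 (none) to 100 (complete plant death) two weeks after a simulated field spray. Rates span 15–1000 g ai/ha, delivered in acetone at 187 l/ha. For post-emergence treatments, plants have 2–3 leaves and the spray carries 0.25% v/v non-ionic surfactant.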

[13] = system: ivyleaf morningglory (Ipomoea hederacea, IPOHE); test: as above; details: post-emerge, 14 days after application, rating scale 0-100
Method in brief: as §2

[14] = system: johnsongrass (Sorghum halepense, SORHA); test: as above; details: post-emerge, 14 days after application, rating scale 0-100
Method in brief: as §2

[15] = system: lambsquarters (Chenopodium album, CHEAL); test: as above; details: post-emerge, 14 days after application, rating scale 0-100
Method in brief: as §2

[16] = system: velvetleaf (Abutilon theophrasti, ABUTH); test: as above; details: post-emerge, 14 days after application, rating scale 0-100
Method in brief: as §2

[17] = system: green foxtail (Setaria viridis, SETVI); test: as above; details: post-emerge, 14 days after application, rating scale 0-100
Method in brief: as §2

[18] = system: redroot pigweed (Amaranthus retroflexus, AMARE); test: as above; details: post-emerge, 14 days after application, rating scale 0-100
Method in brief: as §2

[19] = system: barnyardgrass (Echinochloa crus-galli, ECHCG); test: as above; details: post-emerge, 14 days after application, rating scale 0-100
Method in brief: as §2

[20] = system: sicklepod (Cassia obtusifolia, CASOB); test: as above; details: post-emerge, 14 days after application, rating scale 0-100
Method in brief: as §2

[21] = system: upland rice (Oryza sp., var. Tebonnet, RICE); test: Pre-emerge test, crop safety; details: for phytotoxicity rating RICE (crop damage): pre-emerge, 14 days after application, scale 0-100; for Pre-emerge phytotoxicity rating (0-100), crop damage, RICE: rated 14 days after application, 0 = no damage, 100 = complete death
Method in brief: as §2

[22] = system: field corn (Zea mays L., var. Dekalb 535, CORN); test: Pre-emerge test, crop safety; details: for Pre-emerge phytotoxicity rating (0-100), crop damage, CORN: rated 14 days after application, 0 = no damage, 100 = complete death
Method in brief: as §2

COc1c(Cl)cc(F)c(-n2c(=O)cc(C(F)(F)F)n(C)c2=O)c1NC(=O)CSC [2-168]
10: phytotoxicity rating SETVI ([6]; 63 g ai/ha) | RICE phytotoxicity rating (crop damage) ([10]; 63 g ai/ha) | CORN phytotoxicity rating (crop damage) ([11]; 250 g ai/ha) | SETVI phytotoxicity rating ([17]; 250 g ai/ha)
20: phytotoxicity rating ECHCG ([7]; 250 g ai/ha) | AMARE phytotoxicity rating ([18]; 63 g ai/ha) | phytotoxicity rating RICE (crop damage) ([21]; 63 g ai/ha)
30: phytotoxicity rating CASOB ([8]; 63 g ai/ha) | RICE phytotoxicity rating (crop damage) ([10]; 250 g ai/ha) | CHEAL phytotoxicity rating ([15]; 63 g ai/ha)
40: phytotoxicity rating IPOHE ([2]; 63 g ai/ha)
90: phytotoxicity rating IPOHE ([2]; 250 g ai/ha) | phytotoxicity rating SORHA ([3]; 250 g ai/ha) | phytotoxicity rating AMARE ([9]; 63 g ai/ha)
0: phytotoxicity rating DIGSA ([1]; 63 g ai/ha) | phytotoxicity rating SORHA ([3]; 63 g ai/ha) | phytotoxicity rating ECHCG ([7]; 63 g ai/ha) | DIGSA phytotoxicity rating ([12]; 63 g ai/ha) | DIGSA phytotoxicity rating ([12]; 250 g ai/ha) | SORHA phytotoxicity rating ([14]; 63 g ai/ha) | SORHA phytotoxicity rating ([14]; 250 g ai/ha) | SETVI phytotoxicity rating ([17]; 63 g ai/ha) | ECHCG phytotoxicity rating ([19]; 63 g ai/ha) | ECHCG phytotoxicity rating ([19]; 250 g ai/ha) | CASOB phytotoxicity rating ([20]; 63 g ai/ha) | phytotoxicity rating CORN (crop damage) ([22]; pre-emerge, 63 g ai/ha, 14 days after application, scale 0-100)
95: phytotoxicity rating SETVI ([6]; 250 g ai/ha)
60: phytotoxicity rating ABUTH ([5]; 63 g ai/ha) | IPOHE phytotoxicity rating ([13]; 63 g ai/ha) | ABUTH phytotoxicity rating ([16]; 63 g ai/ha) | phytotoxicity rating RICE (crop damage) ([21]; 250 g ai/ha)
50: CHEAL phytotoxicity rating ([15]; 250 g ai/ha) | AMARE phytotoxicity rating ([18]; 250 g ai/ha)
80: phytotoxicity rating DIGSA ([1]; 250 g ai/ha) | phytotoxicity rating CASOB ([8]; 250 g ai/ha) | CASOB phytotoxicity rating ([20]; 250 g ai/ha)
5: CORN phytotoxicity rating (crop damage) ([11]; 63 g ai/ha)
100: phytotoxicity rating CHEAL ([4]; 63 g ai/ha) | phytotoxicity rating CHEAL ([4]; 250 g ai/ha) | phytotoxicity rating ABUTH ([5]; 250 g ai/ha) | phytotoxicity rating AMARE ([9]; 250 g ai/ha) | IPOHE phytotoxicity rating ([13]; 250 g ai/ha) | ABUTH phytotoxicity rating ([16]; 250 g ai/ha)

COc1c(Cl)cc(F)c(-n2c(=O)cc(C(F)(F)F)n(C)c2=O)c1NC(=O)CCc1ccccc1 [2-86]
100: Pre-emerge Herbicidal Activity, phytotoxicity rating (0-100), DIGSA ([1]; 63 g ai/ha) | Pre-emerge Herbicidal Activity, phytotoxicity rating (0-100), DIGSA ([1]; 250 g ai/ha) | Pre-emerge Herbicidal Activity, phytotoxicity rating (0-100), IPOHE ([2]; 250 g ai/ha) | Pre-emerge Herbicidal Activity, phytotoxicity rating (0-100), SORHA ([3]; 250 g ai/ha) | Pre-emerge Herbicidal Activity, phytotoxicity rating (0-100), CHEAL ([4]; 63 g ai/ha) | Pre-emerge Herbicidal Activity, phytotoxicity rating (0-100), CHEAL ([4]; 250 g ai/ha) | Pre-emerge Herbicidal Activity, phytotoxicity rating (0-100), ABUTH ([5]; 63 g ai/ha) | Pre-emerge Herbicidal Activity, phytotoxicity rating (0-100), ABUTH ([5]; 250 g ai/ha) | Pre-emerge Herbicidal Activity, phytotoxicity rating (0-100), SETVI ([6]; 63 g ai/ha) | Pre-emerge Herbicidal Activity, phytotoxicity rating (0-100), SETVI ([6]; 250 g ai/ha) | Pre-emerge Herbicidal Activity, phytotoxicity rating (0-100), ECHCG ([7]; 250 g ai/ha) | Pre-emerge Herbicidal Activity, phytotoxicity rating (0-100), CASOB ([8]; 63 g ai/ha) | Pre-emerge Herbicidal Activity, phytotoxicity rating (0-100), AMARE ([9]; 63 g ai/ha) | Pre-emerge Herbicidal Activity, phytotoxicity rating (0-100), AMARE ([9]; 250 g ai/ha) | phytotoxicity rating RICE ([10]; 250 g ai/ha) | phytotoxicity rating CORN ([11]; 250 g ai/ha) | phytotoxicity rating IPOHE ([13]; 63 g ai/ha) | phytotoxicity rating IPOHE ([13]; 250 g ai/ha) | phytotoxicity rating SORHA ([14]; 250 g ai/ha) | phytotoxicity rating CHEAL ([15]; 63 g ai/ha) | phytotoxicity rating CHEAL ([15]; 250 g ai/ha) | phytotoxicity rating ABUTH ([16]; 63 g ai/ha) | phytotoxicity rating ABUTH ([16]; 250 g ai/ha) | phytotoxicity rating SETVI ([17]; 250 g ai/ha) | phytotoxicity rating AMARE ([18]; 63 g ai/ha) | phytotoxicity rating AMARE ([18]; 250 g ai/ha) | phytotoxicity rating ECHCG ([19]; 250 g ai/ha) | phytotoxicity rating CASOB ([20]; 63 g ai/ha) | phytotoxicity rating CASOB ([20]; 250 g ai/ha)
70: phytotoxicity rating SORHA ([14]; 63 g ai/ha)
95: Pre-emerge Herbicidal Activity, phytotoxicity rating (0-100), ECHCG ([7]; 63 g ai/ha) | Pre-emerge Herbicidal Activity, phytotoxicity rating (0-100), CASOB ([8]; 250 g ai/ha) | phytotoxicity rating DIGSA ([12]; 250 g ai/ha) | Pre-emerge phytotoxicity rating (0-100), crop damage, CORN ([22]; 63 g ai/ha)
99: Pre-emerge Herbicidal Activity, phytotoxicity rating (0-100), SORHA ([3]; 63 g ai/ha) | Pre-emerge phytotoxicity rating (0-100), crop damage, RICE ([21]; 250 g ai/ha) | Pre-emerge phytotoxicity rating (0-100), crop damage, CORN ([22]; 250 g ai/ha)
90: Pre-emerge Herbicidal Activity, phytotoxicity rating (0-100), IPOHE ([2]; 63 g ai/ha) | phytotoxicity rating CORN ([11]; 63 g ai/ha) | phytotoxicity rating SETVI ([17]; 63 g ai/ha) | phytotoxicity rating ECHCG ([19]; 63 g ai/ha) | Pre-emerge phytotoxicity rating (0-100), crop damage, RICE ([21]; 63 g ai/ha)
80: phytotoxicity rating RICE ([10]; 63 g ai/ha)
30: phytotoxicity rating DIGSA ([12]; 63 g ai/ha)
